Entries after “also recorded” stand apart in the source; their conditions may differ.
Test: Gravimetric vapor sorption (GVS)
Assay type: physicochemical
Protocol: Sorption isotherms were obtained using a SMS DVS Intrinsic moisture sorption analyzer, controlled by DVS Intrinsic Control software. The sample temperature was maintained at 25° C. by the instrument controls. The humidity was controlled by mixing streams of dry and wet nitrogen, with a total flow rate of 200 ml/min. The relative humidity was measured by a calibrated Rotronic probe (dynamic range of 1.0-100% RH), located near the sample. The weight change, (mass relaxation) of the sample as a function of % RH was constantly monitored by a microbalance (accuracy ±0.005 mg).
Typically, 5-30 mg of sample was placed in a tared mesh stainless steel basket under ambient conditions. The sample was loaded and unloaded at 40% RH and 25° C. (typical room conditions). A moisture sorption isotherm was performed as outlined below (2 scans per complete cycle). The standard isotherm was performed at 25° C. at 10% RH intervals over a 0-90% RH range. Typically, a double cycle (4 scans) was carried out. Data analysis was carried out within Microsoft Excel using the DVS Analysis Suite.

For `O=C(O)[C@H]1C[C@@H](N2CCc3oc(-c4ccc(OCc5ccc(Cl)cc5)cc4)nc3C2)C1` [Form B, (1s,3s)-3-(2-(4-((4-chlorobenzyl)oxy)phenyl)-6,7-dihydrooxazolo[4,5-c]pyridin-5(4H)-yl)cyclobutane-1-carboxylic acid], the “XRPD post GVS analysis” value was “Unchanged by XRPD post analysis; also recorded: Sample unchanged by XRPD” and the “Relative humidity at which the monohydrate is stable” value (readily rehydrates after water loss) was greater than 20 % RH.

Reference: patent publication US11535632B2, “Solid forms of an S1P-receptor modulator” (ESCAPE Bio, Inc., priority 2019, dated 2022)
